Legend:
Type in all cases: biochemical
[1] = molecular target: T1, secretory G4 (Homo sapiens, UniProt Q9Y2A9, R328H); test: β1,3-galactosyltransferase activity of the secretory G4; details: receptor substrate 10 mmol/l, 37° C., 16 hours
T1 construct: made in house; host or cells: Sf21 insect cells infected with recombinant baculovirus from pVL1393-F2G4
T1 sequence (Q9Y2A9 38-372 R328H): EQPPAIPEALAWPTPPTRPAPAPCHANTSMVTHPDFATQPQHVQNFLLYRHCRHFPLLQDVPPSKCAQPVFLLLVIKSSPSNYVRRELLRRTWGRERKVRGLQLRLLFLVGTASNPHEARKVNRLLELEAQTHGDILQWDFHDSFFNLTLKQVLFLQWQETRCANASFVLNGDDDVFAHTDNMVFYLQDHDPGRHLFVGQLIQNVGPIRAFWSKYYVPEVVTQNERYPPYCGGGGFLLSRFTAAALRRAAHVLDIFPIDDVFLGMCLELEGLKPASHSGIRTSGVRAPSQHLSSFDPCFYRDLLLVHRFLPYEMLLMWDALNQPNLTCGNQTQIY
Experimental: On the other hand, when β1,3-galactosyltransferase activity of the secretory G4 was measured by using GlcNAc and GlcNAcβ1-3Galβ1-4Glc as receptor substrates, the activity was not detected.
(§1) The glycosyltransferase reaction was carried out as follows. The reaction was carried out at 37° C. for 16 hours in 40 μl of an assay solution [50 mmol/l MOPS (pH 7.5), 5 mmol/l UDP-GlcNAc (SIGMA), 5 mmol/l MnCl2, 10 mmol/l of a sugar chain substrate and 10 μl of the above eluate]. Next, the reaction solution was treated at 100° C. for 5 minutes and then centrifuged at 10,000×g for 20 minutes to obtain the supernatant, and a portion thereof was analyzed by using HPAE/PAD (High Performance Anion Pulsed Amperometoric Detection; manufactured by DIONEX). The specific method was carried out in the usual way [Anal. Biochem., 189, 151 (1990), J. Biol. Chem., 273, 433 (1998)].

[2] = molecular target: T2, secreted G3 (Homo sapiens, UniProt Q9NY97); test: β1,3-galactosyltransferase activity of the secreted G3; details: acceptor substrate, method of Example 11(2)
T2 construct: made in house; host or cells: Sf21 insect cells infected with recombinant baculovirus from pVL1393-F2G3
T2 sequence (Q9NY97 31-397): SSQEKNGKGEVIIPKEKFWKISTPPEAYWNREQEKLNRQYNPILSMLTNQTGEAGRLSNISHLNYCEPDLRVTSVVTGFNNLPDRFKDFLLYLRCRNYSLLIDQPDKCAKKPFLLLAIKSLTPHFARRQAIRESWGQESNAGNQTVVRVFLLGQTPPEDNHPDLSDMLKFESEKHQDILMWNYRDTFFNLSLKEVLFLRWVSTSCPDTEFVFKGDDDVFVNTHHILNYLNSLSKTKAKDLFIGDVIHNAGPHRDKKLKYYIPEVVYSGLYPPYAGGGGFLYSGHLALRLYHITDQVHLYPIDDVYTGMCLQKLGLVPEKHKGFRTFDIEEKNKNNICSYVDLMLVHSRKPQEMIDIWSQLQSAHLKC
Experimental: as §1
On the other hand, when β1,3-galactosyltransferase activity of the secreted G3 was measured by using GlcNAc and GlcNAcβ1-3Galβ1-4Glc as acceptor substrates, the activity was not detected. […] The method described in Example 11(2) was used.

[3] = molecular target: T3, secreted G7 (Homo sapiens, UniProt Q9C0J1); test: β1,3-galactosyltransferase activity of the secreted G7; details: acceptor substrate, method of Example 11(2)
T3 construct: made in house; host or cells: Sf21 insect cells infected with recombinant baculovirus from pVL1393-F2G7
Experimental: as §1
On the other hand, when β1,3-galactosyltransferase activity of the secreted G7 was measured by using GlcNAc and GlcNAcβ1-3Galβ1-4Glc as acceptor substrates, the activity was not detected. […] The method described in Example 11(2) was used.

Measured: β1,3-galactosyltransferase activity

T3 sequence (Q9C0J1 56-378): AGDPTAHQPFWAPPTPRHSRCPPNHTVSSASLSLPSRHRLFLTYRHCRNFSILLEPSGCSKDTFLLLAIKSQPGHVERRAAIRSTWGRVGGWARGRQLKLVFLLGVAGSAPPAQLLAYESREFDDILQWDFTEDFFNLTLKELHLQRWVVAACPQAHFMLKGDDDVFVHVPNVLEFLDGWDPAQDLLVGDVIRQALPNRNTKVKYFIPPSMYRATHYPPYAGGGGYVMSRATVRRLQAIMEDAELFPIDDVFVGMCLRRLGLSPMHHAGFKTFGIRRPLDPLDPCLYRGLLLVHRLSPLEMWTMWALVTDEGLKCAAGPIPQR

CC(=O)N[C@H]1C(O)O[C@H](CO)[C@@H](O)[C@@H]1O (stereo partly drawn) [GlcNAc, N-acetylglucosamine]
not detected: all assays above

CC(=O)N[C@H]1[C@H](O[C@H]2[C@@H](O)[C@@H](CO)O[C@@H](O[C@H]3[C@H](O)[C@@H](O)C(O)O[C@@H]3CO)[C@@H]2O)O[C@H](CO)[C@@H](O)[C@@H]1O (stereo partly drawn) [GlcNAcβ1-3Galβ1-4Glc]
not detected: all assays above

— patent US7972815B2, “Method of producing sugar chain using human G4 polypeptide” (Kyowa Hakko Kirin Co., Ltd., priority 1999, dated 2011)
